This passage reports melting point results from US11077115B2, “Rorgamma modulators and uses thereof” (Genfit, priority 2017, dated 2021).

Counter-ions that a name gives are not always drawn.

For the molecule `COc1cc(CC(=O)NC(c2ccc(C)o2)c2ccc(C)cc2N2CCCCC2)ccc1N1CCS(=O)(=O)CC1` (stereo not shown) (as salt: HCl) [Cpd. 29, 2-[4-(1,1-dioxo-1-thiomorpholin-4-yl)-3-methoxyphenyl]-N-{[4-methyl-2-(piperidin-1-yl)phenyl](5-methylfuran-2-yl)methyl}acetamide], the melting point came to 90 °C. The result for `COc1ccc(CC(=O)NC(c2ccc(C)o2)c2ccc(C)cc2N2CCCCC2)cc1N1CCS(=O)(=O)CC1` (stereo not shown) (as salt: HCl) [Cpd. 30, 2-[3-(1,1-dioxo-1-thiomorpholin-4-yl)-4-methoxyphenyl]-N-{[4-methyl-2-(piperidin-1-yl)phenyl](5-methylfuran-2-yl)methyl}acetamide] reads 88 °C.

`Cc1ccc(C(NC(=O)C2(c3ccc(N4CCS(=O)(=O)CC4)cc3)CC2)c2ccc(C)o2)c(C)c1` (stereo not shown) (as salt: HCl) [Cpd. 31, N-[(2,4-dimethylphenyl)(5-methylfuran-2-yl)methyl]-1-[4-(1,1-dioxo-1-thiomorpholin-4-yl)phenyl]cyclopropane-1-carboxamide]: the melting point is 75 °C. Next, `Cc1ccc(C(NC(=O)C2(c3ccc(N4CCS(=O)(=O)CC4)cc3)CC2)c2ccc(C)o2)c(N2CCCCC2)c1` (stereo not shown) (as salt: HCl) [Cpd. 32, 1-[4-(1,1-dioxo-1-thiomorpholin-4-yl)phenyl]-N-{[4-methyl-2-(piperidin-1-yl)phenyl](5-methylfuran-2-yl)methyl}cyclopropane-1-carboxamide]: 98 °C; `Cc1ccc(C(NC(=O)Cc2cnc(N3CCS(=O)(=O)CC3)nc2)c2ccc(C)o2)c(C(F)(F)F)c1` (stereo not shown) (as salt: HCl) [Cpd. 33, 2-[2-(1,1-dioxo-1-thiomorpholin-4-yl)pyrimidin-5-yl]-N-{[4-methyl-2-(trifluoromethyl)phenyl](5-methylfuran-2-yl)methyl}acetamide]: 224 °C; `Cc1ccc(C(NC(=O)Cc2cnc(N3CCS(=O)(=O)CC3)nc2)c2ccc(C)o2)c(Br)c1` (stereo not shown) (as salt: HCl) [Cpd. 34, N-[(2-bromo-4-methylphenyl)(5-methylfuran-2-yl)methyl]-2-[2-(1,1-dioxo-1-thiomorpholin-4-yl)pyrimidin-5-yl]acetamide]: 199 °C. `Cc1ccc(C(NC(=O)Cc2cnc(N3CCS(=O)(=O)CC3)nc2)c2ccc(C)o2)c(N2CC3CC3C2)c1` (stereo not shown) (as salt: HCl) [Cpd. 36, N-[(2-{3-azabicyclo[3.1.0]hexan-3-yl}-4-methylphenyl)(5-methylfuran-2-yl)methyl]-2-[2-(1,1-dioxo-1-thiomorpholin-4-yl)pyrimidin-5-yl]acetamide] displayed a melting point of 105 °C. The result for `Cc1ccc(C(NC(=O)C2(c3ccc(N4CCS(=O)(=O)CC4)c(Br)c3)CC2)c2ccc(C)o2)c(N2CCCCC2)c1` (stereo not shown) (as salt: HCl) [Cpd. 37, 1-[3-bromo-4-(1,1-dioxo-1-thiomorpholin-4-yl)phenyl]-N-{[4-methyl-2-(piperidin-1-yl)phenyl](5-methylfuran-2-yl)methyl}cyclopropane-1-carboxamide] reads 106 °C; that for `Cc1ccc(C(NC(=O)Cc2cnc(N3CCS(=O)(=O)CC3)nc2C)c2ccc(C)o2)c(N2CCCCC2)c1` (stereo not shown) (as salt: HCl) [Cpd. 38, 2-[2-(1,1-dioxo-1-thiomorpholin-4-yl)-4-methylpyrimidin-5-yl]-N-{[4-methyl-2-(piperidin-1-yl)phenyl](5-methylfuran-2-yl)methyl}acetamide], 99 °C. Next, `Cc1ccc(C(NC(=O)Cc2ccc(O)c(N3CCS(=O)(=O)CC3)c2)c2ccc(C)o2)c(N2CCCCC2)c1` (stereo not shown) (as salt: HCl) [Cpd. 39, 2-[3-(1,1-dioxo-1-thiomorpholin-4-yl)-4-hydroxyphenyl]-N-{[4-methyl-2-(piperidin-1-yl)phenyl](5-methylfuran-2-yl)methyl}acetamide]: 118 °C.
